According to patent US8846044B2, “Stabilizing alkylglycoside compositions and methods thereof” (Aegis Therapeutics, LLC, priority 2006, dated 2014):
Like-named read-outs stand apart in the source and are kept apart here.

Experiments:
[1] = in water; cited from earlier work
[2] = test system: people with AIDS; details: cited from earlier work; for Patients with improved neuro-psychological performance: early AIDS dementia (Kosten et al., 1997)
[3] = test system: HIV BaL; format: cell-based, HIV-1; details: dried
Protocol: Inhibition of HIV infection is studied by utilizing an infection assay in which GHOST CD4 CCR5 cells are infected with HIV BaL, an R5 tropic isolate (Ruff, M R et al., 2001). Infection is detected via viral induction of the hGFP gene (green fluorescent protein) 48 hrs post-infection. Trays are measured in a plate reader to determine fluorescence intensity. All infections are performed by adding fresh culture medium containing approximately 1,000 infectious units of HIV-1 per well (96-well plates). […]
The peptide was dissolved in the indicated concentration of TFE in water and then shaken or agitated for 24 hrs at 37° C. The peptide was subsequently dried down, and the TFE/water mixture removed under vacuum. […] Although TFE is removed, residual traces of TFE within acceptable range for human consumption may remain.
Inhibition of HIV infection was studied by utilizing an infection assay using GHOST CD4 as previously described by Ruff, M R et al., 2001. CCR5 cells are infected with HIV BaL, an R5 tropic isolate. Infection is detected via viral induction of the hGFP gene (green fluorescent protein) about 48 hours post-infection. Trays were measured in a plate reader to determine fluorescence intensity. All infections were performed by adding fresh culture medium containing approximately 1,000 infectious units of HIV-1 per well (96-well plates).
Again, the peptide was then evaporated or dried down, and resuspended in an aqueous solution, e.g., water for about three days, and tested for anti-HIV activity, as above.

[4] = test system: HIV BaL; format: cell-based, HIV-1; details: dried, in water about three days
[5] = test system: HIV; assay: Inhibition of HIV infectivity in vitro by stored DAPTA solutions; format: cell-based
Protocol: Aggregation is discovered to be associated with a loss of biological activity in vitro. Typically, the recommended protocol is to have DAPTA stored at 0.1 mM solutions in water at 4° C.
Aggregation is reduced in the presence of trifluoroethanol (TFE). TFE was selected because of its property of reducing certain types of protein-protein interactions. DAPTA was dissolved in either distilled water, or solutions containing between 60% and 100% TFE. Aggregation was evaluated by assaying inhibition of HIV infectivity, in vitro. […] Also, TFE is capable of disassociating preformed aggregates of DAPTA. Aggregates of DAPTA, formed in distilled water were disrupted by addition of TFE to 80%, as measured by EM.

[6] = test system: envelop (gp120) binding; details: 1987 report; cited from earlier work
[7] = DAPTA fibril formation in solution (EM, FTIR, CD, dye binding); format: physicochemical; details: for Time to form aggregates: distilled water, 10 mg/ml
Protocol: Preparation of DAPTA solutions. DAPTA was dissolved in water, and solutions maintained at various temperatures and times. To prepare fibrils, DAPTA was prepared at 10 mgs/mL in water and stored overnight at 4° C.
Determining fibril formation.
Congo red was dissolved in PBS (5 mM potassium phosphate, 150 mM NaCl, pH 7.4) to a concentration of 7 ug/mL. The solution was chilled to 4° C., and DAPTA added as a 10 mg/mL stock solution in water, to yield final peptide concentration in the dye solution of 0.48 mg/mL. Peptide solution immediately after dissolution of powder was compared with an aged stock solution containing aggregated peptides. Spectra were collected between 400-700 nm, at 4° C.
Fibril formation of peptide T or analog thereof can also be determined using Circular Dichroism (CD) spectroscopy. Ten mg/mL solutions in water of either freshly prepared peptide or containing fibrillar aggregates was added to distilled water at 4° C. to a concentration of 50 ug/mL. CD spectra were collected on a Jasco model J-810 spectrometer using a 0.1 cm path length quartz cuvette, between 190-250 nm, with a […] interval, and a response time of 2 sec.
Still another method of determining fibril formation of peptide T or analog thereof is performed using Fourier Transform Infrared (FTIR) Spectroscopy. DAPTA was dissolved in deuterated water, to a concentration of 10 mg/ml and incubated under temp and time conditions that promote fibril formation. 25 ul samples were then placed in a pre-cooled transmission cell with NaCl windows separated by a 6 um spacer. FTIR spectra were collected on a BioRad FTS-175C Fourier transform spectrometer in transmission mode using a DTGS detector. 2506 interferograms were recorded with a 2 cm-1 resolution. Water vapor was subtracted and the spectra baselines corrected.

[8] = test system: isolated nasal cilia; details: cited from earlier work
[9] = test system: nasal mucosa; details: cited from earlier work
[10] = Light scatter of beta interferons, Pramlintide and calcitonin with and without dodecyl maltoside; details: 37° C., 150 RPM, 38 day test period

In the case of CCCCCCCCCCCCCCO[C@@H]1O[C@H](CO)[C@@H](O[C@@H]2O[C@@H](CO)[C@H](O)[C@@H](O)[C@@H]2O)[C@H](O)[C@H]1O (stereo in doubt) [Tetradecyl maltoside], the CMC [1] is given as 0.01 mM.

In the case of CCCCCCCCCCCCCO[C@@H]1O[C@H](CO)[C@@H](OC2OC(CO)C(O)C(O)C2O)[C@H](O)[C@H]1O (stereo in doubt) [Tridecyl maltoside], the CMC [1] is given as 0.03 mM.

For CCCCCCCCCCO[C@@H]1O[C@H](CO)[C@@H](O[C@H]2O[C@H](CO)[C@@H](O)[C@H](O)[C@H]2O)[C@H](O)[C@H]1O [Decyl maltoside], the CMC [1] is given as 1.8 mM.

For CCCCCCCCCCCCO[C@@H]1O[C@H](CO)[C@@H](O[C@H]2O[C@H](CO)[C@@H](O)[C@H](O)[C@H]2O)[C@H](O)[C@H]1O [Dodecyl β-D-maltoside], the CMC [1] is given as 0.17 mM.

For CCCCCCCCO[C@@H]1O[C@H](CO)[C@@H](O[C@H]2O[C@H](CO)[C@@H](O)[C@H](O)[C@H]2O)[C@H](O)[C@H]1O [Octyl maltoside], the CMC [1] is listed as 19.5 mM.

In the case of D-ala^1-Peptide T-amide [DAPTA], the “Neuropsychological performance versus placebo” value ([2]; 2 mg three times daily intranasally, at least four months (Heseltine et al., 1998)) is given as “no difference in neuropsychological performance”, the “Patients with improved neuro-psychological performance” value ([2]; high dose (15 mg daily)) is given as 4/5 and the “Persistently infected monocyte reservoir” value ([2]; human, in vivo) is given as “greatly reduced or flushed to undetectable levels in all patients”. For the same molecule, the “Patients with improved neuro-psychological performance” value ([2]; low dose (1.5 mg daily)) was 1/4, the “Lower limb pain in HIV-related peripheral neuropathy” value ([2]; nine individuals, subcutaneously 10 mg daily (MacFadden and Doob 1991)) was “complete or subjectively significant resolution of lower limb pain” and the Adverse drug effects ([2]; nine individuals, subcutaneously (MacFadden and Doob 1991)) was “No adverse drug effects were noted”. The “Cognitive and neuromotor function versus controls” value ([2]; phase I, 0.1 to 3.2 mg/kg/day intravenously, moderate impairment (Bridge et al. 1989)) was “Cognitive and neuromotor function improved”, the “Painful peripheral neuropathy versus placebo” value ([2]; phase II double-blind, 6 mg/day for 12 weeks (Simpson et al. 1996)) was “no statistically significant differences” and the “Percent Reduction in HIV Infection” value ([3]; 0.1 nM DAPTA, TFE Concentration 0 %, shaken 24 hrs at 37° C., stored in water about 3 days) was 0 ± 2%. For the same molecule, the “Percent Reduction in HIV Infection” value ([3]; 0.1 nM DAPTA, TFE Concentration 20 %, shaken 24 hrs at 37° C., stored in water about 3 days) was 0 ± 3%, the “Percent Reduction in HIV Infection” value ([3]; 0.1 nM DAPTA, TFE Concentration 40 %, shaken 24 hrs at 37° C., stored in water about 3 days) was 0 ± 2% and the “Percent Reduction in HIV Infection” value ([3]; 0.1 nM DAPTA, TFE Concentration 60 %, shaken 24 hrs at 37° C., stored in water about 3 days) was 20 ± 4%. For the same molecule, the “Percent Reduction in HIV Infection” value ([3]; 0.1 nM DAPTA, TFE Concentration 80 %, shaken 24 hrs at 37° C., stored in water about 3 days) was 100 ± 5%, the “Percent Reduction in HIV Infection” value ([3]; 0.1 nM DAPTA, TFE Concentration 100 %, shaken 24 hrs at 37° C., stored in water about 3 days) was 98 ± 3% and the “Percent Reduction in HIV Infection” value ([3]; 80% TFE, shaken about 24 hours at 37 ° C., in water about three days) was 100 ± 5%. For the same molecule, the “Percent Reduction in HIV Infection” value ([3]; about 80% TFE/water, shaken 24 hrs at 37 degrees, in water about three days) was 100 ± 3%, the “Percent Reduction in HIV Infection” value ([4]; 80% TFE, shaken about 24 hours at Room Temp.) was 70 ± 6% and the “Percent Reduction in HIV Infection” value ([4]; about 80% TFE/water, shaken 12 hrs at 37 degrees) was 70 ± 4%. The “Percent Reduction in HIV Infection” value ([4]; about 80% TFE/water, shaken 48 hrs at 37 degrees) was 100 ± 3%, the “Time to substantial loss of activity (HIV uptake inhibition in vitro)” value ([5]; 0.1 mM solution in water at 4° C.) was “about 6 weeks” and the “Activity after storage (inhibition of HIV infectivity in vitro)” value ([5]; stored in TFE between 60% and 100% versus water) was “retained more activity”. The “Concentration that blocks envelop (gp120) binding and inhibits viral infectivity” value [6] was 10 pM, the “Dissociation of aggregates on warming” value ([7]; 5 mg/mL in 0.45% NaCl, warmed to 37° C. for about 17-24 hours with shaking) was “reversibly dissociate” and the “Time to observable fibril formation” value ([7]; 0.9% saline (10 mg/mL), room or ambient temperature) was no more than 48 h. For the same molecule, the “Time to observable fibrillization” value ([7]; 0.9% saline (10 mg/mL), stored at 4° C.) was “less than 1 hour”, the “Effect of TFE on preformed aggregates, by EM” value ([7]; aggregates formed in distilled water, TFE added to 80%) was “disrupted” and the “Time to form aggregates” value ([7]; 4 deg. C.) was no more than 2 h. For the same molecule, the “Time to form aggregates” value ([7]; room temperature) was 24 to 170 h.

For Sucrose dodecanoate, the CMC [1] is given as 0.3 mM.

For benzalkonium chloride [BAC], the “Effect on isolated nasal cilia in vitro” value [8] is given as “ciliotoxic”, the “Saccharine transport time and proinflammatory indicators in vivo” value [9] is given as “did not alter saccharine transport time” and the “Damage to the nasal mucosa” value ([9]; in vivo) is given as “no significant damage to the nasal mucosa”. For the same molecule, the Nasal irritation ([9]; in vivo) was “no discernible negative effects” and the Nasal mucosal function ([9]; in vivo) was “no detectable effect on the nasal mucosal function”.

B1: Betaseron®: beta interferon 1b, Lot number YA0549A (protein, UniProt P01574 22-187, looked up, variant C17S)
Interferon beta: MSYNLLGFLQRSSNFQSQKLLWQLNGRLEYCLKDRMNFDIPEEIKQLQQFQKEDAALTIYEMLQNIFAIFRQDSSSTGWNETIVENLLANVYHQINHLKTVLEEKLEKEDFTRGKLMSSLHLKRYYGRILHYLKAKEYSHCAWTIVRVEILRNFYFINRLTGYLRN
modifications: interferon beta-1b, lacks N-terminal Met
With B1 the “Aggregation as increase in light scatter” value [10] was “much larger increase in light scatter” and the “Stabilization by 0.2% Dodecyl maltoside, in words” value ([10]; light scatter at 500 nm) was “greatest stabilization effect”.
